Series [1] deals with His-Tag L-alanine amide hydrolase. The experiment in a line: Study of substrate specificity using His-Tag purified enzyme. The class given is biochemical, Corynebacterium glutamicum strain ATCC 13286. Conditions: pH 9.0, enzyme 0.0045 U/ml, 25° C., 3 hours; for peptide produced from test amino acid amide and L-glutamine: 100 mM test amino acid amide, 150 mM L-glutamine; for peptide synthesized from L-alanine amide and test amino acid: 100 mM L-alanine amide, 150 mM test amino acid.

In series [2] the test system is L-alanine amide hydrolase. The experiment in a line: Production of L-alanyl-L-asparagine and L-alanyl-L-glutamine with purified enzyme. The format is biochemical, Corynebacterium glutamicum strain ATCC 13286. Conditions: 50 μmol L-alanine amide hydrochloride + 150 μmol L-asparagine or L-glutamine, 0.08 unit enzyme, 1 ml, pH 9.0, 30° C., 10 hours. The text has this:
Hereinafter, the present invention will be explained in more detail by way of examples. However, the present invention should not be considered to be limited to these examples.
The L-alanine amide hydrolase uniformly purified in Example 2 was allowed to act on L-alanine amide hydrochloride and L-asparagine or L-alanine amide hydrochloride and L-glutamine to produce L-alanyl-L-asparagine or L-alanyl-L-glutamine. In the case of obtaining L-alanyl-L-asparagine, 200 μmol of Tris-HCl buffer (pH 9.0), 50 μmol or L-alanine amide hydrochloride, 150 μmol of L-asparagine and enzyme liquid containing 0.08 unit of L-alanine amide hydrolase were added and mixed to a final volume of 1 ml. In the case of obtaining L-alanyl-L-glutamine, the reactants were mixed under the same conditions as in the case of L-alanyl-L-asparagine with the exception of using 150 μmol of L-glutamine instead of 150 μmol of L-asparagine. Control experiments were established for the case of using one of the substrates or setting the lot in which enzyme was not added. The reaction was carried out at a reaction temperature of 30° C. for 10 hours, and the results of quantifying the target product are shown in Table 3.

The test system of series [3] is L-alanine amide hydrolase. The experiment in a line: Measurement of activity of L-alanine amide hydrolase (L-alanyl-L-glutamine formation, HPLC). The class given is biochemical, Corynebacterium glutamicum strain ATCC 13286. Particulars: His-Tag purified enzyme. The procedure: Measurement of L-alanine amide enzyme activity was carried out by incubating a reaction mixture containing 50 mM L-alanine amide, 150 mM L-glutamine, 100 mM Tris-HCl buffer (pH 9.0), 10 mM EDTA and enzyme solution at 30° C. for 60 minutes followed by stopping the reaction by adding aqueous phosphoric acid (pH 1.5) equal to four volumes of the reaction mixture. The amount of L-alanyl-L-glutamine was determined by HPLC. For the unit of enzyme activity, enzyme activity that produces 1 μmol of L-alanyl-L-glutamine in 1 minute under these conditions was defined as 1 unit (U).
The conditions of HPLC used for analysis were as indicated below.
Mobile phase: (aqueous phosphoric acid solution (pH 2.1)), 2.5 mM sodium-1-octanesulfonate/methanol=10/1
Column temperature: 40° C.

The conditions of series [4]: compared with L-glutamine; cited from earlier work.

Residues, ends and D or L forms follow the SMILES beside them.

Turning to `NC(=O)CC[C@H](NC(=O)[C@@H](N)CC(=O)O)C(=O)O` [α-L-aspartyl-glutamine] (H-Asp-Gln-OH), in series [1], the “peptide produced from test amino acid amide and L-glutamine” value was found to be 21.2 mM. Regarding `C[C@H](N)C(=O)N[C@@H](CCCNC(=N)N)C(=O)O` [L-alanyl-L-arginine] (H-Ala-Arg-OH), the “peptide synthesized from L-alanine amide and test amino acid” value (“peptide synthesized” for short) in series [1] was 27.69 mM. The same measure, in the same setting: the same measure for `C[C@H](N)C(=O)N[C@@H](CCC(=O)O)C(=O)O` [L-alanyl-L-glutamate] (H-Ala-Glu-OH): 1.20 mM; for `C[C@H](N)C(=O)NCC(=O)O` [L-alanyl-glycine] (H-Ala-Gly-OH): 7.54 mM. On the same count and under the same terms, the same measure for `C[C@H](N)C(=O)N[C@H](C(=O)O)[C@@H](C)O` [L-alanyl-L-threonine] (H-Ala-Thr-OH): 20.76 mM. In the case of `C[C@H](N)C(=O)N[C@@H](CC(N)=O)C(=O)O` [L-alanyl-L-asparagine] (H-Ala-Asn-OH), the Product concentration in series [2] is on record as 8.4 mM. As for `CC(C)C[C@H](NC(=O)[C@H](C)N)C(=O)O` [L-alanyl-L-leucine] (H-Ala-Leu-OH), the “peptide synthesized” value in series [1] was 9.60 mM. Still for that read-out and setting: the same measure for `C[C@H](N)C(=O)N[C@@H](CCCCN)C(=O)O` [L-alanyl-L-lysine] (H-Ala-Lys-OH): 18.83 mM; for `C[C@H](N)C(=O)N[C@@H](Cc1c[nH]c2ccccc12)C(=O)O` [L-alanyl-L-tryptophan] (H-Ala-Trp-OH): 10.09 mM. As for `NCC(=O)N[C@@H](CCC(N)=O)C(=O)O` [glycyl-L-glutamine] (H-Gly-Gln-OH), in series [1], the “peptide produced from test amino acid amide and L-glutamine” value is 17.7 mM. `C[C@H](N)C(=O)N1CCC[C@H]1C(=O)O` [L-alanyl-L-proline] (H-Ala-Pro-OH): the “peptide synthesized” value in series [1] was found to be 0.81 mM. Same read-out and setting: the same measure for `C[C@H](N)C(=O)N[C@@H](Cc1ccc(O)cc1)C(=O)O` [L-alanyl-L-tyrosine] (H-Ala-Tyr-OH): 1.52 mM; for `CC(C)[C@H](NC(=O)[C@H](C)N)C(=O)O` [L-alanyl-L-valine] (H-Ala-Val-OH): 9.72 mM. Still for that read-out and setting: the value for `C[C@H](N)C(=O)N[C@@H](Cc1ccccc1)C(=O)O` [L-alanyl-L-phenylalanine] was 13.42 mM; that for `C[C@H](N)C(=O)N[C@@H](CO)C(=O)O` [L-alanyl-L-serine] (H-Ala-Ser-OH) was 24.67 mM. Regarding `C[C@H](N)C(=O)N[C@@H](CCC(N)=O)C(=O)O` [L-alanyl-L-glutamine] (H-Ala-Gln-OH), the “production yield of Ala-Gln relative to L-alanine amide” value in series [3] came out at 7.2%. In addition, in series [4], the stability entry is recorded as “higher” and the water-solubility result is on record as “higher”. The Product concentration in series [2] was 7.7 mM. Take `C[C@H](N)C(=O)N[C@@H](Cc1c[nH]cn1)C(=O)O` [L-alanyl-L-histidine] (H-Ala-His-OH): the “peptide synthesized” value in series [1] is 12.52 mM.

As to `CSCC[C@H](NC(=O)[C@H](C)N)C(=O)O` [L-alanyl-L-methionine] (H-Ala-Met-OH), the “peptide synthesized” value in series [1] turned out to be 14.49 mM. On the same count and under the same terms, the value for `C[C@H](N)C(=O)N[C@@H](C)C(=O)O` [L-alanyl-L-alanine] (H-Ala-Ala-OH) was 10.11 mM. Same read-out and setting: the same measure for `CC[C@H](C)[C@H](NC(=O)[C@H](C)N)C(=O)O` [L-alanyl-L-isoleucine] (H-Ala-Ile-OH): 14.11 mM.
